Measured values taken from patent US12291494B2, “Methods of treating fibrosis” (Nogra Pharma Limited, priority 2012, dated 2025).

How the values were obtained:
[1] = system: Collagen-1; assay: Liver gene expression by quantitative Real Time PCR: collagen-1; assay type: in vivo, mice; conditions: liver mRNA, normalized to β-actin, CCl4 group 138.12 ± 34.68
Experimental: The effect of administration of compound 34 (GED) and the specific CB2 agonist (JWH-133) was evaluated on the level of gene expression of cytokines (IL-1β, TNF-α) and genes involved in the mechanism of fibrosis by quantitative Real Time PCR.
Total RNA was isolated from livers using Rneasy kit (Macherey Nagel, Hoerdt, France) according to the manufacturer's instructions. RNA quantification was performed using spectrophotometry. After treatment at 37° C. for 30 min with 20-50 units of RNase-free DNase I (Roche Diagnostics Corporation, Indianapolis, IN, USA), oligo-dT primers (Roche Diagnostics Corporation, Indianapolis, USA) were used to synthesize single-stranded cDNA. mRNAs were quantified using SYBR green Master Mix (Applera, Courtaboeuf, France) with murine specific oligonucleotides (see Table 2) in a GeneAmp Abiprism 7000 (Applera, Courtaboeuf, France). In each assay, calibrated and no-template controls were included. Each sample was run in triplicate. SYBR green dye intensity was analyzed using the Abiprism 7000 SDS software (Applera, Courtaboeuf, France). All results were normalized to the unaffected housekeeping gene β-actin.

[2] = system: CTGF; assay: DSS intestinal fibrosis study: Western blot of colon, CTGF; assay type: in vivo, mice; conditions: whole colon, OD normalized with GAPDH, expressed as percentage of control groups; DSS 115.1 ± 16.88; listed as GED
Experimental: For the Western blot analysis, 0.5 cm of frozen colonic samples were homogenized in RIPA Buffer containing 50 mM Tris HCl pH 7.6, 150 mM NaCl, 1.5 mM MgCl2, 5 mM EDTA, 1% Triton-X and 10% Glycerol, supplemented with 100 mM Sodium Fluoride (NaF), 2 mM Sodium Orthovanadate (Na3VO4), 10 mM Sodium Pyrophosphate (NaPPi), 1 mM phenylmethanesulphone (PMSF) and a classical protease-inhibitor cocktail containing 10 μg/mL Leupeptin and Aprotinin.
For each sample, 30 μg of protein was separated by PAGE and electroblotted. Nitrocellulose membranes (100% pure) were incubated (according with a specific protocol for each antibody) with primary antibodies directed against CTGF, Collagen-I and GAPDH (purchased from Abcam, Cambridge, UK; 1:1000 for 2 h at RT), diluted in 5% non-fat milk in 0.1% TBS-t. […] Optical density of target bands was determined using a computer-assisted densitometer and the ImageJ public domain software (W. S., Rasband, ImageJ, U. S. National Institutes of Health, Bethesda, MD; http://rsb.info.nih.gov/ij/, 1997-2011). Tissue levels were expressed as units of Optical Density (OD) per quantity of total proteins, normalized with internal control GAPDH and the results were expressed as percentage of control groups.

[3] = system: Male C57bl6 mice; assay: CCl4-induced liver fibrosis: histology (Metavir score); assay type: in vivo
Experimental: Liver fibrosis was induced in Male C57bl6 mice (Charles River, l'Arbresle, France) by injection of carbon tetrachloride (CCl4). The C57bl6 mice weighed 22-25 g and were maintained in laboratory conditions for 1 week before experiment. Animals were housed 5 per cage with food and water available ad libitum.
The effectiveness of compound 34 (specific ligand of PPARg) as compared to JWH-133 (anti-fibrogenic agent) was evaluated. Compound 34 was administered orally in combination with CCl4 injections for ca. 5 weeks. Compound 34 was dosed daily at 200 uL of a 30 mM solution. JWH-133 was administered daily via intraperitoneal injections at 3 mg/kg (dose volume=100 uL). The model of liver fibrosis is induced by chronic exposure to increased dosages of CCl4 for 5 weeks. The first week, mice received an intraperitoneal injection of CCl4, resuspended in olive oil, at the dosage of 80 μl/kg of mice body weight twice a week. At week 2, 3 injections of CCl4 at the dosage of 160 μl/kg were performed every two days. At week 3, 3 injections of CCl4 at the dosage of 240 μl/kg were performed every two days. At week 4, 3 injections of CCl4 at the dosage of 320 μl/kg were performed every two days. Mice were euthanized, at week 5, 3 days after the last CCl4 administration.
The formalin-fixed liver tissue was processed and 5 μm thick paraffin sections were stained with hematoxylin and eosin (H&E) and Picrosirius red staining (specific coloration for collagen in tissue sections) to evaluate the degree of fibrosis in the liver. Each section was analyzed blindly by 3 different experimenters for the quantification of the degree of fibrosis for each lobe of the liver (5) using the Metavir score (see FIG. 2A for Metavir Score chart). The photographs seen in FIG. 2B were obtained with a 20× objective.

[4] = system: C57BL/6 mice; assay: DSS chronic colitis (Ex. 7): assessment of colitis course; assay type: in vivo
Experimental: Chronic colitis and fibrosis were induced in mice by oral administration of 2.5% (w/v) DSS in drinking water, for three cycles (5 day DSS, 7 days of water). Animals were monitored daily for food and fluid intake and were weighed at the beginning of the study and thereafter regularly every three days.
The mice were randomly divided into two groups: i. DSS and ii. DSS+GED. Each group consisted of 25 mice and was compared with 10 control animals, which received only water. GED (30 mg/kg/mouse) was dissolved in a solution containing 0.5% Carboxymethylcellulose sodium salt (CMC; MW: 90,000 Da; Sigma Aldrich) and 1% Tween 80 and was administrated daily by oral gavage (100 μl/mouse). GED was administered at the beginning of second cycle.
Animals were observed daily for fluid intake, weight changes, and examined for signs of colitis including weight loss, diarrhoea, rectal bleeding and prolapse as well as signs of systemic inflammation such as piloerection, lethargy, and periorbital exudates.

## COC(Cc1ccc(N)cc1)C(=O)O (racemic) [Compound 34, (±)-2-methoxy-3-(4′-aminophenyl) propionic acid]
[1]
  Collagen-1: 75.15 ± 5.23, p = 0.03
[1]; listed as compound 34
  Collagen-1: 42.81±14.81
[2]
  CTGF (Western blot): 55.75±17.53
[3]; FIG. 3B
  decrease of the fibrotic score (adapted Metavir score) compared to untreated animals: 12.5%
[3]; compound 34 30 mM 200 uL oral daily, JWH-133 3 mg/kg i.p. daily, CCl4 vehicle group 2.5±0.5
  mean Metavir score (FIG. 3A): 2.1±0.2
[3]; result in words
  degree of fibrosis (Metavir): decrease in the degree of fibrosis from severe to moderate fibrosis
[4]; chronic DSS colitis, GED 30 mg/kg oral daily, mean ± SEM
  Body weight: 25.132 ± 0.458 ^
[4]; chronic DSS colitis, GED 30 mg/kg oral gavage daily, DSS 2
  Mortality: 0 n. mice
[4]; seventh day of DSS oral administration, DSS mice 40%
  mice with systemic manifestations (piloerection, periorbital exudates and/or lethargy): 30%
[4]; seventh day of DSS oral administration, DSS mice 70%
  mice with moderate to severe diarrhea: 50%
